Test systems include KM-20L2; SNB-78; M19-MEL; LXFL 529; HOP-18; DMS-273; RXF 631; XF498; DMS-114.
What all share (assay): NCI-60 cell line screen, 48 h

Structures can show the parent of a compound that is named as a salt.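 Where inhibition never reached the appropriate level, the endpoint shown equals the highest concentration tested. Otherwise, values were interpolated linearly from a five-concentration, 48-hour dose response in 96-well plates. GI50 marks 50% less growth.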 Active and inactive are the calls of the source. No stated cut-off is given here; in the data, active = GI50 up to about 1.1 µM and inactive = higher. Where only a bound is given, the exact number is not on record here.

Regarding `CS(=O)(=O)Sc1ccc(Cl)cc1`, the GI50 in the test with KM-20L2 is 11.9 µM (inactive); in the test on SNB-78, 0.713 µM (active); in the test on M19-MEL it was 6.82 µM (inactive); in the test on LXFL 529, 11.3 µM (inactive); in the test on HOP-18, 26.8 µM (inactive); with DMS-273, 5.15 µM (inactive). Further, the GI50 is 7.38 µM (inactive) in the test with RXF 631 and 10.7 µM (inactive) in the test on XF498.

Take `O=C1C(Cl)=C(Cl)C(=O)N1c1ccc(F)cc1` [FLUOROIMIDE]: the GI50 is 22.1 µM (inactive) with KM-20L2; 27 µM (inactive) in the test with SNB-78; 19.5 µM (inactive) in the test on M19-MEL; 15.9 µM (inactive) with LXFL 529; 19.7 µM (inactive) in the test with DMS-114; 21.1 µM (inactive) with HOP-18. The GI50 with DMS-273 is 25.8 µM (inactive); in the test with RXF 631, 28.9 µM (inactive); in the test on XF498, 19.9 µM (inactive).

On to `CCN(CC)c1ccc(/N=C2\C=C(Cl)C(=O)c3ncccc32)c(C)c1`, for which the GI50 in the test with KM-20L2 was 5.65 µM (inactive); in the test on SNB-78, 13.1 µM (inactive); in the test with M19-MEL, 4.68 µM (inactive); with DMS-114, 2.67 µM (inactive); in the test with HOP-18, 3.08 µM (inactive); with DMS-273 it was 3.73 µM (inactive). In addition, the figures for the GI50 with RXF 631 and with XF498 were 13.5 µM (inactive) and 5.78 µM (inactive), respectively.

Consider `NCc1cc(O)c(O)c(O)c1`, for which the GI50 in the test with KM-20L2 was > 100 µM (inactive); in the test on SNB-78, > 100 µM (inactive); in the test with M19-MEL, 80.4 µM (inactive); in the test with LXFL 529 it was > 100 µM (inactive); in the test with DMS-114 it was > 100 µM (inactive); in the test with HOP-18 it was > 100 µM (inactive). Besides, the GI50 with DMS-273, in the test on RXF 631 and in the test on XF498 was > 100 µM (inactive) throughout.

For the compound `CC1=NCCc2c1[nH]c1cc(O)ccc21` [HARMALOL HYDROCHLORIDE], the GI50 with KM-20L2, in the test on SNB-78, in the test on M19-MEL, in the test on LXFL 529, in the test with DMS-114 and with HOP-18 was > 100 µM (inactive) in each case. Also, the GI50 in the test on RXF 631 and in the test with XF498 was > 100 µM (inactive) each time.

Turning to `O=C(O)C12C3CCCC1C2CC3` (stereo not given), the GI50 in the test with KM-20L2, with SNB-78, in the test on M19-MEL, in the test on LXFL 529, with DMS-114 and in the test on HOP-18 was > 100 µM (inactive) throughout. In addition, the GI50 in the test on RXF 631 and with XF498 was > 100 µM (inactive) in each case.

Values taken from ChEMBL document CHEMBL1201862, “PubChem BioAssay data set” (2004).
